Data published in US7855209B2, “Allosteric modulators of the A1 adenosine receptor” (King Pharmaceuticals Research and Development, Inc., priority 2006, dated 2010).
Each block holds one molecule with its values, some of them ahead of it.

What was measured:
[1] = target: T1, human A1-adenosine receptor (Homo sapiens, UniProt P30542); test: Functional assay measuring the cAMP level in CHO cells expressing the human A1-adenosine receptor; assay type: cell-based
T1 construct: expressed in transfected cells; host or cells: CHO cells (hCHO-A1 clone)
T1 sequence (P30542 1-326): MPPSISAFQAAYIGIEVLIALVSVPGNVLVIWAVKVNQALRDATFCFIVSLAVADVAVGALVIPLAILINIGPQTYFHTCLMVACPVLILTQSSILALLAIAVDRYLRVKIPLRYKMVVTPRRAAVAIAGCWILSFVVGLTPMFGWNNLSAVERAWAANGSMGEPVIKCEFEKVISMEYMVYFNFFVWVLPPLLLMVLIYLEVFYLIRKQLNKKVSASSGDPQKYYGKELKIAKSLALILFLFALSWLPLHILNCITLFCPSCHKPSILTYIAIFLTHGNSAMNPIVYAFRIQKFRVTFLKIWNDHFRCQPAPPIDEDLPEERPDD
Procedure: Measurement of cAMP Enhancement in CHO Cells (Functional Assay):
Allosteric enhancement is measured as the action of a test compound at different concentrations (0.01, 0.1, 1 and 10 μM) to reduce the cAMP content of hCHO-A1 cells. To initiate an experiment, growth medium is removed from the 12-well plates and cells are washed once with warm Hanks' buffered saline. The wash solution is then removed and replaced with fresh Hanks' solution containing forskolin (1 μM), rolipram (20 μM), N^6-cyclopentyladenosine (CPA, 0.01 nM), adenosine deaminase (2 U/mL), and the test compound. Forskolin is used to stimulate the activity of adenylyl cyclase, rolipram to inhibit cAMP phosphodiesterase, adenosine deaminase to degrade endogenous adenosine, and CPA to cause a small increase of the number of activated adenosine receptors. […] The content of cAMP in acidified extracts of cells is determined by radioimmunoassay as previously described (Kollias-Baker et al. J. Pharmacol. Exp. Ther. 1997, 281, 761-768). Because the magnitude of the effects of allosteric modulators on hCHO-A1 cells change subtly with passage number and differ slightly among different aliquots of cells, the actions of the test compounds and the action of a reference compound (PD 81,723) are assessed in each experiment. […]

[2] = target: T1, human A1-adenosine receptor; test: Saturation binding of [3H]CCPA to hCHO-A1 membranes (BMAX)
Procedure: Membrane Preparation from CHO Cells Transfected with the Human Recombinant A1, A2A and A3 Adenosine Receptors:
The hCHO-A1, hCHO-A2A and hCHO-A3 cell clones are grown adherently and maintained in Dulbecco's modified Eagle's medium with nutrient mixture F12, containing 10% fetal calf serum, penicillin (100 U/mL), streptomycin (100 μg/mL), L-glutamine (2 mM), geneticine (G418, 0.2 mg/mL) at 37° C. in 5% CO2/95% air (Klotz et al. Naunyn-Schmied. Arch Pharm. 1998, 357, 1-9). Cells are split two or three times weekly at a ratio of between 1:5 and 1:10. For membrane preparation the culture medium is removed. […] The protein concentration is determined according to a Bio-Rad method (Bradford, 1976) with bovine albumin as a standard reference. […]
To determine the effect of the compounds of the present invention on the binding to A1, A2A and A3 receptors, membranes from hCHO-A1, hCHO-A2A, hCHO-A3 are incubated in a buffer solution in the absence and in the presence of the examined compounds. […] Bound and free radioactivity are separated by filtering the assay mixture through Whatman GF/B glass fibre filters using a Micro-mate 196 cell harvester (Packard Instrument Company). The filter bound radioactivity was counted on Top Count Microplate Scintillation Counter (efficacy 57%) with Micro-Scint 20. […]

IC50 [1]: ~0.1 µM
increase of the BMAX value of the agonist [3H]CCPA ([2]; at 10 μM concentration, human A1 adenosine receptors): up to 600%
SMILES: Nc1scc(CN2CCN(c3ccc(Cl)cc3)CC2)c1C(=O)c1ccc(Cl)cc1 [Example 4, {2-Amino-4-[4-((4-chlorophenyl)piperazin-1-yl)methyl]thiophen-3-yl}(4-chlorophenyl)methanone]

increase in the BMAX value of the agonist [3H]CCPA [2]: about 6 fold
SMILES: Nc1scc(CN2CCC3(CC2)Oc2cccc(F)c2O3)c1C(=O)c1ccc(Cl)cc1 [Example 60, {2-Amino-4-(4-fluorospiro[benzo[d][1,3]-dioxole-2,4′-piperidine]-1′-ylmethyl)thiophen-3-yl}(4-chlorophenyl)methanone]

melting point: 140 to 141 °C
SMILES: Cc1sc(N)c(C(=O)c2ccc(Cl)cc2)c1CN1CCN(c2cccc(F)c2)CC1 [Example 88, {2-Amino-4-[(4-(3-fluorophenyl)piperazin-1-yl)methyl]-5-methylthiophen-3-yl}(4-chlorophenyl)methanone]
